Results reported in ChEMBL document CHEMBL5352391, “New structural classes of antimalarials” (Eur J Med Chem, 2022).
Blank lines part the entries; values can stand above or below the molecule they belong to.

How the values were obtained:
Plasmodium berghei [1] = experiment: Antimalarial activity against Plasmodium berghei ANKA infected in mouse assessed as reduction in parasitemia by measuring effective dose at administrated orally for 4 days by flow cytometry analysis; format: functional; settings: 96 h, route po, time 4 day
Plasmodium falciparum [2] = experiment: Antiplasmodial activity against chloroquine resistant Plasmodium falciparum RKL9 infected in human erythrocyte assessed as inhibition of parasite growth incubated for 24 hrs by two fold serial dilution assay; format: functional, organism-based
Plasmodium berghei [3] = experiment: Antimalarial activity against Plasmodium berghei ANKA infected in Swiss albino mouse assessed as reduction in parasitemia at 50 micromol/kg,po administrated for 4 days by Giemsa staining based microscopic analysis; format: functional; set-up: scale not given: the % may be the effect or the level left; settings: dose 50 µmol/kg, time 4 day
[4] = Selectivity index, ratio of CC50 for cytotoxicity against human HepG2 cells by MTT assay to IC50 for antiplasmodial activity against chloroquine resistant Plasmodium falciparum W2 by SYBR green I dye based fluorescence assay; format: toxicity, cell-based; settings: read-out: Ratio CC50/IC50
Plasmodium falciparum [5] = experiment: Antiplasmodial activity against chloroquine sensitive Plasmodium falciparum 3D7 assessed as inhibition of parasite growth incubated for 48 hrs by SYBR green I dye based fluorescence assay; format: functional, organism-based; settings: 3D7, 48 h
Plasmodium falciparum [6] = experiment: Antiplasmodial activity against chloroquine resistant Plasmodium falciparum W2 assessed as inhibition of parasite growth incubated for 48 hrs by SYBR green I dye based fluorescence assay; format: functional, organism-based; settings: W2, 48 h
Plasmodium falciparum [7] = experiment: Antiplasmodial activity against Plasmodium falciparum 3D7 assessed as inhibition of parasite growth incubated for 72 hrs by LDH assay based spectrofluorometric analysis; format: functional, organism-based; settings: 3D7, 72 h
Plasmodium falciparum [8] = experiment: Antiplasmodial activity against chloroquine resistant Plasmodium falciparum Dd2 assessed as inhibition of parasite growth incubated for 72 hrs by LDH assay based spectrofluorometric analysis; format: functional, organism-based; settings: Dd2, 72 h
Plasmodium falciparum [9] = experiment: Antiplasmodial activity against Plasmodium falciparum TM90-C2A assessed as inhibition of parasite growth incubated for 72 hrs by SYBR Green I dye based fluorescence assay; format: functional, organism-based
Plasmodium falciparum [10] = experiment: Antiplasmodial activity against Plasmodium falciparum TM90-C2B assessed as inhibition of parasite growth incubated for 72 hrs by SYBR Green I dye based fluorescence assay; format: functional, organism-based
Plasmodium falciparum [11] = experiment: Antiplasmodial activity against Plasmodium falciparum W2 assessed as inhibition of parasite growth incubated for 72 hrs by SYBR Green I dye based fluorescence assay; format: functional, organism-based; settings: W2, 72 h
Plasmodium falciparum [12] = experiment: Antiplasmodial activity against Plasmodium falciparum TM91-C23 assessed as inhibition of parasite growth incubated for 72 hrs by SYBR Green I dye based fluorescence assay; format: functional, organism-based; settings: TM91-C23, 72 h
Plasmodium vinckei [13] = experiment: Antimalarial activity against Plasmodium vinckei infected in Swiss OF1 mouse assessed as reduction in parasite growth by measuring its effective dose administrated orally for four consecutive days and measured on day 5 by Giemsa staining based microscopic analysis; format: functional; settings: 120 h, route po, time 5 day
Plasmodium vinckei [14] = experiment: Antimalarial activity against Plasmodium vinckei infected in Swiss OF1 mouse assessed as reduction of parasitaemia at 10 mg/kg,po administrated for four consecutive days and measured on day 5 by Giemsa staining based microscopic analysis; format: functional; set-up: scale not given: the % may be the effect or the level left; settings: time 5 day
Plasmodium falciparum [15] = experiment: Antiplasmodial activity against chloroquine resistant Plasmodium falciparum K1 infected in human RBC assessed as inhibition of parasite growth incubated for 48 hrs by optical microscopy analysis; format: functional, organism-based; settings: K1, Erythrocyte
[16] = Selectivity index, ratio of CC50 for cytotoxicity against human HepG2 cells by MTT assay to IC50 for antiplasmodial activity against chloroquine sensitive Plasmodium falciparum 3D7 by SYBR green I dye based fluorescence assay; format: toxicity, cell-based; settings: read-out: Ratio CC50/IC50
Plasmodium falciparum [17] = experiment: Antimalarial activity against Plasmodium falciparum FCBR assessed as inhibition of parasite growth by SYTOX Green dye based high-throughput assay; format: functional, organism-based
Falcipain 2 = target: T1, Falcipain 2 (Plasmodium falciparum, UniProt Q9N6S8); experiment: Inhibition of Plasmodium falciparum recombinant His-tagged falcipain-2 expressed in Escherichia coli assessed as inhibition constant using Cbz-Phe-Arg-AMC as substrate by fluorescence spectrophotometer assay
T1 sequence (Q9N6S8 whole entry): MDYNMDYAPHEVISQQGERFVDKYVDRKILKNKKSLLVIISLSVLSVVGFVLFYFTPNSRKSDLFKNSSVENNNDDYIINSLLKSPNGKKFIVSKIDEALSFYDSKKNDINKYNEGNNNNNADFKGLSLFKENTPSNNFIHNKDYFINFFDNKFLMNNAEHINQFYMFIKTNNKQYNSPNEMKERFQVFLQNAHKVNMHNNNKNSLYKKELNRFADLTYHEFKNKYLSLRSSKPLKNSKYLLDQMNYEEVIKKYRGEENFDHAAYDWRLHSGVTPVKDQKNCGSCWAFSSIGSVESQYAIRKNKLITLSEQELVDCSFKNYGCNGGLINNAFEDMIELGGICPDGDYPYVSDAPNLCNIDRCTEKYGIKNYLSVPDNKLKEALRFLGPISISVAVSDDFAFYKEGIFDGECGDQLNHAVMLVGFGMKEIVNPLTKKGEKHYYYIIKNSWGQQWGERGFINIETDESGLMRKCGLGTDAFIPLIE

Plasmodium falciparum [18] = experiment: Additive antiplasmodial activity against Plasmodium falciparum NF54 gametocytes infected in human erythrocyte assessed as inhibition of parasite growth by measuring minimum inhibitory concentration incubated for 48 hrs in presence of lumefantrine by SYBR Green dye based fluorescence assay; format: functional
Plasmodium falciparum [19] = experiment: Additive antiplasmodial activity against Plasmodium falciparum NF54 gametocytes infected in human erythrocyte assessed as inhibition of parasite growth by measuring minimum inhibitory concentration incubated for 48 hrs in presence of chloroquine by SYBR Green dye based fluorescence assay; format: functional
Plasmodium falciparum [20] = experiment: Antiplasmodial activity against Plasmodium falciparum NF54 gametocytes infected in human erythrocyte assessed as inhibition of parasite growthVincubated for 48 hrs by SYBR Green dye based fluorescence assay; format: functional, organism-based
Plasmodium falciparum [21] = experiment: Additive antiplasmodial activity against Plasmodium falciparum NF54 gametocytes infected in human erythrocyte assessed as inhibition of parasite growth by measuring minimum inhibitory concentration incubated for 48 hrs in presence of mefloquine by SYBR Green dye based fluorescence assay; format: functional

SMILES: CC(=O)N1CCN(c2ccc(CN(C(=O)/C=C/c3ccc(C(F)(F)F)cc3)[C@@H](Cc3ccccc3)C(=O)N3CCN(Cc4ccc(N(C)CCO)cc4)CC3)cc2)CC1
ED90 (Plasmodium berghei [1]): 54.4 mg/kg

SMILES: O=C(O)c1cn(-c2ccc(Cl)cc2)nc1-c1ccccc1
IC50 (Plasmodium falciparum [2]): 33 nM
Activity (Plasmodium berghei [3]): 97%

SMILES: c1cc(CNCCCN2CCN(CCCNCc3cccc(-c4nc5ccccc5n5cccc45)c3)CC2)cc(-c2nc3ccccc3n3cccc23)c1
selectivity ratio [4]: 40.6
IC50 (Plasmodium falciparum [5]): 370 nM
IC50 (Plasmodium falciparum [6]): 50 nM

SMILES: C/C1=C\[C@H](C)[C@@H](O)C[C@@H](O)/C(C)=C/[C@H](C)C[C@@H](C)CC[C@@H]([C@@H](C)C(=O)O)OC(=O)[C@@H](C)C1
IC50 (Plasmodium falciparum [7]): 128 nM
IC50 (Plasmodium falciparum [8]): 180 nM

SMILES: C/C1=C\C(=O)O[C@@H](C(C)(C)C)CCC[C@@H](O)CCC[C@H](O)CCC[C@H](O)CCC[C@@H](O)C[C@H](O)C[C@@H](O)CCC[C@H](O)CCC[C@H](O)C[C@@H](O)CCCCC1
IC50 (Plasmodium falciparum [9]): 80 nM
IC50 (Plasmodium falciparum [10]): 90 nM
IC50 (Plasmodium falciparum [11]): 140 nM
IC50 (Plasmodium falciparum [12]): 270 nM

SMILES: CO/N=C(/N)c1ccc(-n2cc(-c3cccc(/C(N)=N\OC)c3)nn2)cc1
ED50 (Plasmodium vinckei [13]): 5 mg/kg
Activity (Plasmodium vinckei [14]): 100%

SMILES: c1ccc(CCC2(CCc3ccccc3)OOC(CCc3ccccc3)(CCc3ccccc3)OO2)cc1
IC50 (Plasmodium falciparum [15]): 1600 nM

SMILES: COc1ccc2c(c1)nc(-c1cccc(CNCCCN3CCN(CCCNCc4cccc(-c5nc6ccc(OC)cc6n6cccc56)c4)CC3)c1)c1cccn12
IC50 (Plasmodium falciparum [5]): 40 nM
IC50 (Plasmodium falciparum [6]): 170 nM
selectivity ratio [16]: 39.2

Ki (Falcipain 2): 1080 nM
SMILES: N=C(NC(=O)OCc1ccccc1)NC(=O)c1ccc(C(=O)NCc2ccc(NC(=O)OCc3ccccc3)cc2)o1
IC50 (Plasmodium falciparum [17]): 1060 nM

MIC50 (Plasmodium falciparum [18]): 1.02 nM
MIC50 (Plasmodium falciparum [19]): 1.46 nM
MIC50 (Plasmodium falciparum [21]): 4.18 nM
SMILES: C[n+]1c2ccccc2cc2[n-]c3ccccc3c21 [CRYPTOLEPINE]
IC50 (Plasmodium falciparum [20]): 19.6 nM
